# According to US20060019932A1, “Treatment of rheumatoid arthritis by inhibition of pde4” (priority 2002, published 2006):
# Where two headings read alike, the source gives them in different places.
# Assays:
# [1] = test system: collagen-induced arthritis in DBA mice; experiment: Collagen-induced arthritis in DBA mice, cumulative score; type: in vivo; details: FIG. 1, score against days dosed, comparable to indomethacin
# Source text: FIG. 1 is a graphical plot of the cumulative score in collagen-induced arthritis in DBA mice plotted against days dosed for vehicle, Roflumilast, Indomethacin, and Example 1.
# [2] = target: T1, human recombinant phosphodiesterase IVa (met-248) (Homo sapiens, UniProt P27815); experiment: SPA based PDE activity assay; type: biochemical
# T1 construct: human recombinant phosphodiesterase IVa (met-248); GST; made in house; host or cells: baculovirus/Sf-9
# T1 sequence (P27815 248-886): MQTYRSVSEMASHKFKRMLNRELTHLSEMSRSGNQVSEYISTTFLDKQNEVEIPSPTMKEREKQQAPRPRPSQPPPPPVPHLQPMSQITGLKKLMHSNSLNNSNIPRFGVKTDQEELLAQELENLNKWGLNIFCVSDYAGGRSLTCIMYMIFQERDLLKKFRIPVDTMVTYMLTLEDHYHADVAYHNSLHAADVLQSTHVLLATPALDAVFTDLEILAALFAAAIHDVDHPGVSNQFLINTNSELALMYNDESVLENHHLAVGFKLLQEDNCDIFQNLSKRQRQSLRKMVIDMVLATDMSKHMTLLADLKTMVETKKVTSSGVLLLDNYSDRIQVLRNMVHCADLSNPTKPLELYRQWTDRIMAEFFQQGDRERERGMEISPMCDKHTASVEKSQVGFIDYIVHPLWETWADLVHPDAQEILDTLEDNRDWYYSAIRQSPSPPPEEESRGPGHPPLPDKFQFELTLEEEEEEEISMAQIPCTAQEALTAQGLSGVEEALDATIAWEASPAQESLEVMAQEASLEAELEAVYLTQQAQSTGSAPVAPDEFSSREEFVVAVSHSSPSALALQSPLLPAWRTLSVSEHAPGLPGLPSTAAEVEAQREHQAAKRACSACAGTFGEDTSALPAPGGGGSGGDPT
# Experimental: Compounds which inhibit the hydrolysis of cAMP to AMP by the type-IV cAMP-specific phosphodiesterases were screened in a 96-well plate format as follows:
# In a 96 well-plate at 30° C. the test compound was added (dissolved in 2 μL DMSO), 188 μL of substrate buffer containing [2,8-^3H] adenosine 3′,5′-cyclic phosphate (cAMP, 100 nM to 50 μM), 10 mM MgCl2, 1 mM EDTA, 50 mM Tris, pH 7.5. The reaction was initiated by the addition of human recombinant PDE4 (the amount was controlled so that ˜10% product was formed in 10 min.). The reaction was stopped after 10 min. by the addition of 1 mg of PDE-SPA beads (Amersham Pharmacia Biotech, Inc., Piscataway, N.J.). The product AMP generated was quantified on a Wallac Microbeta® 96-well plate counter (EG&G Wallac Co., Gaithersburg, Md.). The signal in the absence of enzyme was defined as the background. 100% activity was defined as the signal detected in the presence of enzyme and DMSO with the background subtracted. Percentage of inhibition was calculated accordingly. IC50 value was approximated with a non-linear regression fit using the standard 4-parameter/multiple binding sites equation from a ten point titration.
# IL-2 = experiment: Inhibition of LPS or Con A stimulated human whole blood: IL-2; type: cell-based; details: read-out: Inhibition of LPS or Con A stimulate human whole blood, IL-2
# Source text: (§1) Rheumatoid arthritis (RA) is a systemic autoimmune disease resulting in progressive joint destruction and associated pain. Three major contributors to its pathology are joint inflammation, abnormal cellular and humoral responses, and synovial hyperplasia. T-lymphocytes (T-cells) and monocytes are the major cell types recovered from the synovial tissue of RA patients and experimental evidence confirms that pro-inflammatory cytokines produced by these cells are the major contributors to joint pathogenesis. The inventors have analyzed human whole blood for the production of various cytokines including Th1 and Th2 cytokines following stimulation with lipoplysaccharide (LPS) and Concanavalin A (ConA) in the presence or absence of PDE4 inhibitors. […] TNF-α sequestrants alone have shown clinical efficacy in RA. Thus, if sufficient levels of inhibition are achieved, PDE4 inhibitor-mediated TNF-α suppression would have efficacy in RA.
# (§2) Inhibition of various Th1 and monocyte derived cytokines which may play a role in human rheumatoid arthritis.
# IFNγ = experiment: Inhibition of LPS or Con A stimulated human whole blood: IFNγ; type: cell-based; details: read-out: Inhibition of LPS or Con A stimulate human whole blood, IFNγ
# Source text: as §1, §2
# TNF-α = experiment: Inhibition of LPS or Con A stimulated human whole blood: TNF-α; type: cell-based; details: read-out: Inhibition of LPS or Con A stimulate human whole blood, TNF-α
# Source text: as §1
# Whole blood provides a protein and cell-rich milieu appropriate for the study of biochemical efficacy of anti-inflammatory compounds such as PDE4-selective inhibitors. […] Upon stimulation with LPS, activated monocytes express and secrete TNF-α up to 8 hours and plasma levels remain stable for 24 hours. […]
# IL-12 = experiment: Inhibition of LPS or Con A stimulated human whole blood: IL-12; type: cell-based; details: read-out: Inhibition of LPS or Con A stimulate human whole blood, IL-12
# Source text: as §1, §2
# GM-CSF = experiment: Inhibition of LPS or Con A stimulated human whole blood: GM-CSF; type: cell-based; details: read-out: Inhibition of LPS or Con A stimulate human whole blood, GM-CSF
# Source text: as §1, §2
"IC50 ([2]; 100 nM cAMP, purified GST fusion protein of human recombinant PDE IVa (met-248), baculovirus/Sf-9, read-out: IC50) [nM]",Compound,cumulative score in collagen-induced arthritis [1],IC50 [2] [nM],IC50 (IL-2) [nM],IC50 (IFNγ) [nM],IC50 (TNF-α) [nM],IC50 (IL-12) [nM],IC50 (GM-CSF) [nM]
,"O=C(Nc1c(Cl)cncc1Cl)c1ccc(OC(F)F)c(OCC2CC2)c1 [Roflumilast, N-(3,5-dichloropyrid-4-yl)-3-cyclopropylmethoxy-4-difluoromethoxybenzamide, reference compound]",low cumulative scores,,,,,,
,Cc1c[n+]([O-])ccc1CC(c1ccc(C(O)(C(F)(F)F)C(F)(F)F)cc1)c1ccc(OC(F)F)c(OC(F)F)c1 (stereo not drawn) [Example 2],,1.31,300,50,50,130,70
0.76,CC(C)NC(=O)/C(=C/c1cccc(-c2cc(C(C)(C)C#N)cc3cccnc23)c1)c1ccc(S(C)(=O)=O)cc1 [Example 1],low cumulative scores,,,,,,
